# Data taken from patent US11285127B2, “Compositions and methods for lowering triglycerides without raising LDL-C levels in a subject on concomitant statin therapy” (Amarin Pharmaceuticals Ireland Limited, priority 2013, dated 2022).
# System: patients with fasting triglyceride levels >200 mg/dl and <500 mg/dl despite statin therapy
# Test: 12-week study: lipid profile (TC, LDL-C, HDL-C, non-HDL-C, VLDL-C, VLDL-TG, RLP-C)
# Type: in vivo, human
# Conditions: AMR 101 4 g + statin, MITT
# Text: Parameters (a)-(z) can be measured in accordance with any clinically acceptable methodology. For example, triglycerides, total cholesterol, HDL-C and fasting blood sugar can be sample from serum and analyzed using standard photometry techniques. VLDL-TG, LDL-C and VLDL-C can be calculated or determined using serum lipoprotein fractionation by preparative ultracentrifugation and subsequent quantitative analysis by refractometry or by analytic ultracentrifugal methodology. Apo A1, Apo B and hsCRP can be determined from serum using standard nephelometry techniques. Lipoprotein (a) can be determined from serum using standard turbidimetric immunoassay techniques. LDL particle number and particle size can be determined using nuclear magnetic resonance (NMR) spectrometry. Remnants lipoproteins and LDL-phospholipase A2 can be determined from EDTA plasma or serum and serum, respectively, using enzymatic immunoseparation techniques. Oxidized LDL, intercellular adhesion molecule-1 and interleukin-2 levels can be determined from serum using standard enzyme immunoassay techniques. These techniques are described in detail in standard textbooks, for example Tietz Fundamentals of Clinical Chemistry, 6th Ed. (Burtis, Ashwood and Borter Eds.), WB Saunders Company.
# A multi-center, placebo-controlled, randomized, double-blind, 12-week study was performed to evaluate the efficacy and safety of >96% E-EPA in patients with fasting triglyceride levels >200 mg/dl and <500 mg/dl despite statin therapy (the mean of two qualifying entry values needed to be >185 mg/dl and at least one of the values needed to be >200 mg/dl). The primary objective of the study was to determine the efficacy of >96% E-EPA 2 g daily and 4 g daily, compared to placebo, in lowering fasting TG levels in patients with high risk for cardiovascular disease and with fasting TG levels 200 mg/dl and <500 mg/dl, despite treatment to LDL-C goal on statin therapy.
# The secondary objectives of this study were the following: • 1. To determine the safety and tolerability of >96% E-EPA 2 g daily and 4 g daily; • 2. To determine the effect of >96% E-EPA on lipid and apolipoprotein profiles including total cholesterol (TC), non-high-density lipoprotein cholesterol (non-HDL-C), low density lipoprotein cholesterol (LDL-C), high density lipoprotein cholesterol (HDL-C), and […]; • 3. To determine the effect of >96% E-EPA on lipoprotein associated phospholipase A2 (Lp-PLA2) from baseline to week 12; • 4. To determine the effect of >96% E-EPA on low-density lipoprotein (LDL) particle number and size; • 5. To determine the effect of >96% E-EPA on oxidized LDL; • 6. To determine the effect of >96% E-EPA on fasting plasma glucose (FPG) and hemoglobin A1c (HbA1c); • 7. To determine the effect of >96% E-EPA on insulin resistance; • 8. To determine the effect of >96% E-EPA on high-sensitivity C-reactive protein (hsCRP); • 9. To determine the effects of >96% E-EPA 2 g daily and 4 g daily on the incorporation of fatty acids into red blood cell membranes and into plasma phospholipids; • 10. To explore the relationship between baseline fasting TG levels and the reduction in fasting TG levels; and • 11. To explore the relationship between changes of fatty acid concentrations in plasma and red blood cell membranes, and the reduction in fasting TG levels.
# The primary efficacy variable for the double-blind treatment period was percent change in TG from baseline to Week 12 endpoint. […]
# [1] = Non-statin Washout No, Week 12 endpoint
# [2] = Non-statin Washout Yes, Week 12 endpoint
compound,measurement,setting,value
"CC/C=C\C/C=C\C/C=C\C/C=C\C/C=C\CCCC(=O)OCC [AMR101, ethyl eicosapentaenoate]","Non-HDL-C, Diff from pbo (Hodges-Lehmann median difference)",Atorva subgroup,−13.5
same,"Non-HDL-C, EOT (Week 12 endpoint) median",Atorva subgroup,122.0
same,LDL-C Median % chg from BL,Rosuva subgroup,−3.8%
same,"LDL-C, Diff from pbo (Hodges-Lehmann median difference)",Rosuva subgroup,−14.8
same,"LDL-C, EOT (Week 12 endpoint) median",Rosuva subgroup,82.5
same,Non-HDL-C Median % chg from BL,Rosuva subgroup,−5.5%
same,"Non-HDL-C, Diff from pbo (Hodges-Lehmann median difference)",Rosuva subgroup,−20.0
same,"Non-HDL-C, EOT (Week 12 endpoint) median",Rosuva subgroup,118.0
same,LDL-C Median % chg from BL,Simva subgroup,1.5%
same,"LDL-C, Diff from pbo (Hodges-Lehmann median difference)",Simva subgroup,−5.4
same,"LDL-C, EOT (Week 12 endpoint) median",Simva subgroup,83.0
same,Non-HDL-C Median % chg from BL,Simva subgroup,−4.3%
same,"Non-HDL-C, Diff from pbo (Hodges-Lehmann median difference)",Simva subgroup,−11.1
same,"Non-HDL-C, EOT (Week 12 endpoint) median",Simva subgroup,125.0
same,LDL-C Median % chg from BL,Statin Potency High,5.4%
same,"LDL-C, Diff from pbo (Hodges-Lehmann median difference)",Statin Potency High,−2.9
same,"LDL-C, EOT (Week 12 endpoint) median",Statin Potency High,82.0
same,Non-HDL-C Median % chg from BL,Statin Potency High,−6.3%
same,"Non-HDL-C, Diff from pbo (Hodges-Lehmann median difference)",Statin Potency High,−15.8
same,"Non-HDL-C, EOT (Week 12 endpoint) median",Statin Potency High,118
same,LDL-C Median % chg from BL,Statin Potency Low,7.8%
same,"LDL-C, Diff from pbo (Hodges-Lehmann median difference)",Statin Potency Low,12.4
same,"LDL-C, EOT (Week 12 endpoint) median",Statin Potency Low,84.5
same,Non-HDL-C Median % chg from BL,Statin Potency Low,−1.4%
same,"Non-HDL-C, Diff from pbo (Hodges-Lehmann median difference)",Statin Potency Low,2.4
same,"Non-HDL-C, EOT (Week 12 endpoint) median",Statin Potency Low,131
same,LDL-C Median % chg from BL,Statin Potency Medium,−2.2%
same,"LDL-C, Diff from pbo (Hodges-Lehmann median difference)",Statin Potency Medium,−10.0
same,"LDL-C, EOT (Week 12 endpoint) median",Statin Potency Medium,84.0
same,Non-HDL-C Median % chg from BL,Statin Potency Medium,−4.3%
same,"Non-HDL-C, Diff from pbo (Hodges-Lehmann median difference)",Statin Potency Medium,−13.9
same,"Non-HDL-C, EOT (Week 12 endpoint) median",Statin Potency Medium,124
same,"LDL-C Diff from pbo (median % chg, Hodges-Lehmann)","Diabetes No, Week 12 endpoint",−5.3%
same,LDL-C EOT Median,"Diabetes No, Week 12 endpoint",83.5 mg/dL
same,LDL-C Median % chg from BL,"Diabetes No, Week 12 endpoint",1.4%
same,"Non-HDL-C Diff from pbo (median % chg, Hodges-Lehmann)","Diabetes No, Week 12 endpoint",−11.3′ %
same,Non-HDL-C EOT Median,"Diabetes No, Week 12 endpoint",126 mg/dL
same,Non-HDL-C Median % chg from BL,"Diabetes No, Week 12 endpoint",−0.9%
same,"LDL-C Diff from pbo (median % chg, Hodges-Lehmann)","Diabetes Yes, Week 12 endpoint",−6.3%
same,LDL-C EOT Median,"Diabetes Yes, Week 12 endpoint",83.0 mg/dL
same,LDL-C Median % chg from BL,"Diabetes Yes, Week 12 endpoint",2.0%
same,"Non-HDL-C Diff from pbo (median % chg, Hodges-Lehmann)","Diabetes Yes, Week 12 endpoint",−14.4%
same,Non-HDL-C EOT Median,"Diabetes Yes, Week 12 endpoint",121 mg/dL
same,Non-HDL-C Median % chg from BL,"Diabetes Yes, Week 12 endpoint",−5.5%
same,"LDL-C Diff from pbo (median % chg, Hodges-Lehmann)",[1],−5.1%
same,LDL-C EOT Median,[1],83.5 mg/dL
same,LDL-C Median % chg from BL,[1],2.5%
same,"Non-HDL-C Diff from pbo (median % chg, Hodges-Lehmann)",[1],−4.8%
same,Non-HDL-C EOT Median,[1],122 mg/dL
same,Non-HDL-C Median % chg from BL,[1],−4.9%
same,"LDL-C Diff from pbo (median % chg, Hodges-Lehmann)",[2],−7.5%
same,LDL-C EOT Median,[2],80.0 mg/dL
